Measurements published in patent US20220306695A1, “COMPSTATIN ANALOGUES AND THEIR MEDICAL USES” (priority 2019, published 2022).
Starred links: 1 amine or outer side, 2 acyl side, 3 side chain; linkers in the order of their positions; H or OH if unused. Positions of bridges follow the written chain, without caps; N, C: chain ends. Non-standard residues stand in square brackets, D forms with d. Residues, ends and D or L forms follow the SMILES beside them. Groups on a side chain read outwards from the residue. *: point of attachment. Trp(1-Me) = Cn1cc(C[C@H](N)C(=O)O)c2ccccc21; C18 diacid = O=C(O)CCCCCCCCCCCCCCCCC(=O)*; γGlu = O=C(O)[C@H](CCC(=O)[*:2])N[*:1]; Sar = CNCC(=O)O

Experiments:
[1] = test system: classical complement pathway; assay: In vitro haemolysis assay (inhibition of classical complement pathway); format: cell-based, human; conditions: Table 3; human serum, sensitized sheep red blood cells; read-out: IC50[nM], in vitro analysis of inhibition of hemolysis
Method in brief: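 Serially diluted compound (9 points) was preincubated 15 min at room temperature with diluted human serum, titrated per batch to give 70-90% maximal haemolysis, in Tris/casein buffer pH 7.4 with Mg2+/Ca2+. Antibody-sensitized sheep erythrocytes were then added for 30 min at 37° C, and the reaction was stopped with EDTA. Haemolysis was read at A405, with IC50 from 4PL fit.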

[2] = Solubility test at 10 mg/mL (visual inspection and light scattering); format: physicochemical; conditions: for Solubility, Condition 1 Acetate pH 4: 10 mg/mL compound in 100 mM acetate pH 4; for Solubility, Condition 2 Acetate pH 5: 10 mg/mL compound in 100 mM acetate pH 5; for Solubility, Condition 3 Phosphate pH 6: 10 mg/mL compound in 100 mM phosphate pH 6; for Solubility, Condition 4 Phosphate pH 7: 10 mg/mL compound in 100 mM phosphate pH 7; for Solubility, Condition 5 Phosphate pH 7.5: 10 mg/mL compound in 100 mM phosphate pH 7.5

## CC[C@H](C)[C@@H]1NC(=O)[C@@H](NC(=O)[C@H](Cc2ccc(O)cc2)NC(=O)[C@H](C)NC(=O)[C@H](CO)NC(=O)CNC(=O)[C@H](CCC(=O)O)NC(C)=O)CSSC[C@@H](C(=O)N(C)CC(=O)N[C@@H](CCC(=O)O)C(=O)NCC(=O)N[C@@H](CCC(=O)O)C(=O)N[C@@H](CCCCNC(=O)CC[C@H](NC(=O)CNC(=O)CC[C@H](NC(=O)CCCCCCCCCCCCCCCCC(=O)O)C(=O)O)C(=O)O)C(N)=O)NC(=O)[C@H](CCCNC(=N)N)NC(=O)[C@H](Cc2c[nH]cn2)NC(=O)[C@H](CCC(=O)O)NC(=O)CNC(=O)[C@H](Cc2c[nH]c3ccccc23)NC(=O)[C@H](CC(=O)O)NC(=O)[C@H](CCC(N)=O)NC(=O)[C@H](Cc2cn(C)c3ccccc23)NC1=O [Compound 109] (Ac-EGSAYCI[Trp(1-Me)]QDWGEHRC[Sar]EGEK([γGlu-Gly-γGlu-C18 diacid])-NH2; disulfide 6-16)
[1]
  IC50: < 250 nM
[2]
  Solubility, Condition 1 Acetate pH 4: − (denotes lack of solubility at the given condition, as UV absorbance at 340 nm exceeds 0.1 AU and/or it is visibly turbid or contains particles.)
  Solubility, Condition 2 Acetate pH 5: + (denotes solubility at the given condition, as determined by UV absorbance being less than 0.1 AU at 340 nm and the sample being clear when manually inspected.)
  Solubility, Condition 3 Phosphate pH 6: + (denotes solubility at the given condition, as determined by UV absorbance being less than 0.1 AU at 340 nm and the sample being clear when manually inspected.)
  Solubility, Condition 4 Phosphate pH 7: + (denotes solubility at the given condition, as determined by UV absorbance being less than 0.1 AU at 340 nm and the sample being clear when manually inspected.)
  Solubility, Condition 5 Phosphate pH 7.5: + (denotes solubility at the given condition, as determined by UV absorbance being less than 0.1 AU at 340 nm and the sample being clear when manually inspected.)

## CC[C@H](C)[C@@H]1NC(=O)[C@@H](NC(=O)[C@H](Cc2ccc(O)cc2)NC(C)=O)CSSC[C@@H](C(=O)N[C@H](C(=O)N[C@@H](CCC(=O)O)C(=O)N[C@@H](C)C(=O)NCC(=O)N[C@@H](CO)C(N)=O)[C@@H](C)O)NC(=O)[C@H](CCCNC(=N)N)NC(=O)[C@H](Cc2c[nH]cn2)NC(=O)[C@H](CCC(=O)O)NC(=O)CNC(=O)[C@H](Cc2c[nH]c3ccccc23)NC(=O)[C@H](CC(=O)O)NC(=O)[C@H](CCC(N)=O)NC(=O)[C@H](Cc2cn(C)c3ccccc23)NC1=O [Compound 68] (Ac-YCI[Trp(1-Me)]QDWGEHRCTEAGS-NH2; disulfide 2-12)
[1]
  IC50: < 100 nM
[2]
  Solubility, Condition 1 Acetate pH 4: − (denotes lack of solubility at the given condition, as UV absorbance at 340 nm exceeds 0.1 AU and/or it is visibly turbid or contains particles.)
  Solubility, Condition 2 Acetate pH 5: − (denotes lack of solubility at the given condition, as UV absorbance at 340 nm exceeds 0.1 AU and/or it is visibly turbid or contains particles.)
  Solubility, Condition 3 Phosphate pH 6: + (denotes solubility at the given condition, as determined by UV absorbance being less than 0.1 AU at 340 nm and the sample being clear when manually inspected.)
  Solubility, Condition 4 Phosphate pH 7: + (denotes solubility at the given condition, as determined by UV absorbance being less than 0.1 AU at 340 nm and the sample being clear when manually inspected.)
  Solubility, Condition 5 Phosphate pH 7.5: + (denotes solubility at the given condition, as determined by UV absorbance being less than 0.1 AU at 340 nm and the sample being clear when manually inspected.)

## CC[C@H](C)[C@H](NC(C)=O)C(=O)N[C@H]1CSSC[C@@H](C(=O)N[C@H](C(=O)NCC(=O)N[C@@H](C)C(=O)N[C@@H](CCC(=O)O)C(=O)N[C@@H](CO)C(N)=O)[C@@H](C)O)NC(=O)[C@H](CCCNC(=N)N)NC(=O)[C@H](Cc2c[nH]cn2)NC(=O)[C@H](CCC(=O)O)NC(=O)CNC(=O)[C@H](Cc2c[nH]c3ccccc23)NC(=O)[C@H](CC(=O)O)NC(=O)[C@H](CCC(N)=O)NC(=O)[C@H](Cc2cn(C)c3ccccc23)NC(=O)[C@H]([C@@H](C)CC)NC1=O [Compound 51] (Ac-ICI[Trp(1-Me)]QDWGEHRCTGAES-NH2; disulfide 2-12)
[1]
  IC50: < 100 nM
[2]
  Solubility, Condition 1 Acetate pH 4: − (denotes lack of solubility at the given condition, as UV absorbance at 340 nm exceeds 0.1 AU and/or it is visibly turbid or contains particles.)
  Solubility, Condition 2 Acetate pH 5: − (denotes lack of solubility at the given condition, as UV absorbance at 340 nm exceeds 0.1 AU and/or it is visibly turbid or contains particles.)
  Solubility, Condition 3 Phosphate pH 6: + (denotes solubility at the given condition, as determined by UV absorbance being less than 0.1 AU at 340 nm and the sample being clear when manually inspected.)
  Solubility, Condition 4 Phosphate pH 7: + (denotes solubility at the given condition, as determined by UV absorbance being less than 0.1 AU at 340 nm and the sample being clear when manually inspected.)
  Solubility, Condition 5 Phosphate pH 7.5: + (denotes solubility at the given condition, as determined by UV absorbance being less than 0.1 AU at 340 nm and the sample being clear when manually inspected.)

## CC[C@H](C)[C@@H]1NC(=O)[C@@H](NC(=O)CN(C)C(=O)[C@H](CCC(=O)O)NC(=O)[C@H](CO)NC(C)=O)CSSC[C@@H](C(=O)N(C)CC(=O)N[C@@H](CCC(=O)O)C(=O)N[C@@H](C)C(N)=O)NC(=O)[C@H](CCCNC(=N)N)NC(=O)[C@H](Cc2c[nH]cn2)NC(=O)[C@H](CCC(=O)O)NC(=O)CNC(=O)[C@H](Cc2c[nH]c3ccccc23)NC(=O)[C@H](CC(=O)O)NC(=O)[C@H](CCC(N)=O)NC(=O)[C@H](Cc2cn(C)c3ccccc23)NC1=O [Compound 81] (Ac-SE[Sar]CI[Trp(1-Me)]QDWGEHRC[Sar]EA-NH2; disulfide 4-14)
[1]
  IC50: < 100 nM
[2]
  Solubility, Condition 1 Acetate pH 4: − (denotes lack of solubility at the given condition, as UV absorbance at 340 nm exceeds 0.1 AU and/or it is visibly turbid or contains particles.)
  Solubility, Condition 2 Acetate pH 5: − (denotes lack of solubility at the given condition, as UV absorbance at 340 nm exceeds 0.1 AU and/or it is visibly turbid or contains particles.)
  Solubility, Condition 3 Phosphate pH 6: + (denotes solubility at the given condition, as determined by UV absorbance being less than 0.1 AU at 340 nm and the sample being clear when manually inspected.)
  Solubility, Condition 4 Phosphate pH 7: + (denotes solubility at the given condition, as determined by UV absorbance being less than 0.1 AU at 340 nm and the sample being clear when manually inspected.)
  Solubility, Condition 5 Phosphate pH 7.5: + (denotes solubility at the given condition, as determined by UV absorbance being less than 0.1 AU at 340 nm and the sample being clear when manually inspected.)

## CC[C@H](C)[C@@H]1NC(=O)[C@@H](NC(=O)[C@H](Cc2ccccc2)NC(=O)[C@H](CCC(=O)O)NC(=O)[C@H](CO)NC(C)=O)CSSC[C@@H](C(=O)N[C@H](C(=O)NCC(=O)N[C@@H](C)C(=O)N[C@@H](CCC(=O)O)C(=O)N[C@@H](CO)C(N)=O)[C@@H](C)O)NC(=O)[C@H](CCCNC(=N)N)NC(=O)[C@H](Cc2c[nH]cn2)NC(=O)[C@H](CCC(=O)O)NC(=O)CNC(=O)[C@H](Cc2c[nH]c3ccccc23)NC(=O)[C@H](CC(=O)O)NC(=O)[C@H](CCC(N)=O)NC(=O)[C@H](Cc2cn(C)c3ccccc23)NC1=O [Compound 67] (Ac-SEFCI[Trp(1-Me)]QDWGEHRCTGAES-NH2; disulfide 4-14)
[1]
  IC50: < 100 nM
[2]
  Solubility, Condition 1 Acetate pH 4: − (denotes lack of solubility at the given condition, as UV absorbance at 340 nm exceeds 0.1 AU and/or it is visibly turbid or contains particles.)
  Solubility, Condition 2 Acetate pH 5: − (denotes lack of solubility at the given condition, as UV absorbance at 340 nm exceeds 0.1 AU and/or it is visibly turbid or contains particles.)
  Solubility, Condition 3 Phosphate pH 6: + (denotes solubility at the given condition, as determined by UV absorbance being less than 0.1 AU at 340 nm and the sample being clear when manually inspected.)
  Solubility, Condition 4 Phosphate pH 7: + (denotes solubility at the given condition, as determined by UV absorbance being less than 0.1 AU at 340 nm and the sample being clear when manually inspected.)
  Solubility, Condition 5 Phosphate pH 7.5: + (denotes solubility at the given condition, as determined by UV absorbance being less than 0.1 AU at 340 nm and the sample being clear when manually inspected.)

## CC[C@H](C)[C@@H]1NC(=O)[C@@H](NC(=O)[C@@H](NC(=O)[C@H](CCC(=O)O)NC(=O)CNC(=O)[C@H](CCC(=O)O)NC(C)=O)[C@@H](C)CC)CSSC[C@@H](C(=O)N[C@H](C(N)=O)[C@@H](C)O)NC(=O)[C@H](CCCNC(=N)N)NC(=O)[C@H](Cc2c[nH]cn2)NC(=O)[C@H](CCC(=O)O)NC(=O)CNC(=O)[C@H](Cc2c[nH]c3ccccc23)NC(=O)[C@H](CC(=O)O)NC(=O)[C@H](CCC(N)=O)NC(=O)[C@H](Cc2c[nH]c3ccccc23)NC1=O [Compound 30] (Ac-EGEICIWQDWGEHRCT-NH2; disulfide 5-15)
[1]
  IC50: < 100 nM
[2]
  Solubility, Condition 1 Acetate pH 4: − (denotes lack of solubility at the given condition, as UV absorbance at 340 nm exceeds 0.1 AU and/or it is visibly turbid or contains particles.)
  Solubility, Condition 2 Acetate pH 5: − (denotes lack of solubility at the given condition, as UV absorbance at 340 nm exceeds 0.1 AU and/or it is visibly turbid or contains particles.)
  Solubility, Condition 3 Phosphate pH 6: − (denotes lack of solubility at the given condition, as UV absorbance at 340 nm exceeds 0.1 AU and/or it is visibly turbid or contains particles.)
  Solubility, Condition 4 Phosphate pH 7: + (denotes solubility at the given condition, as determined by UV absorbance being less than 0.1 AU at 340 nm and the sample being clear when manually inspected.)
  Solubility, Condition 5 Phosphate pH 7.5: + (denotes solubility at the given condition, as determined by UV absorbance being less than 0.1 AU at 340 nm and the sample being clear when manually inspected.)
